Inhibition and IC50 data for 3 compounds are collected here from ChEMBL document CHEMBL5236600, “Identification of a Novel Potent CYP4Z1 Inhibitor Attenuating the Stemness of Breast Cancer Cells through Lead Optimization” (J Med Chem, 2022).

What all share (format): ADME, cell-based
Test [1] deals with T1, Cytochrome P450 4Z1 (Homo sapiens, UniProt Q86W10).
T1 sequence (Q86W10 whole entry): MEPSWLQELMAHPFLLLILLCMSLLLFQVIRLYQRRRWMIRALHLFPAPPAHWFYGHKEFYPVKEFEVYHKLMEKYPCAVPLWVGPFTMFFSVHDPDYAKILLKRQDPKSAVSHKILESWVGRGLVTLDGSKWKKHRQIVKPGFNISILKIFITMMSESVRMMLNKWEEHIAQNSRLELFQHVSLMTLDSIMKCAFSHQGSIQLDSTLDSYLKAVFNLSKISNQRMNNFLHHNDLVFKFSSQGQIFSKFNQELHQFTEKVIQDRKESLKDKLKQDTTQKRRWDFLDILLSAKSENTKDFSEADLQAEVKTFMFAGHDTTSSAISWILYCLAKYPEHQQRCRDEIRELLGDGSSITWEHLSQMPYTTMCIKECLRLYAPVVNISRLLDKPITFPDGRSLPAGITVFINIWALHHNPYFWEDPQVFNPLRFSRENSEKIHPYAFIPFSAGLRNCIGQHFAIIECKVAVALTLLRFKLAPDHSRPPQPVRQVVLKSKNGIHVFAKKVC
The experiment in a line: Inhibition of CYP4Z1 in human HEK293T cells using Luciferin-BE as substrate at 1 uM incubated for 30 mins in presence of NADPH by luminescence based assay relative to control. Conditions: HEK-293T, 0.5 h.

The target in test [2] is T1, Cytochrome P450 4Z1. In words: Inhibition of CYP4Z1 in human HEK293T cells using Luciferin-BE as substrate at 10 uM incubated for 30 mins in presence of NADPH by luminescence based assay relative to control. The conditions noted are these: HEK-293T, 0.5 h.
Test [3] addresses T1, Cytochrome P450 4Z1. The experiment in a line: Inhibition of CYP4Z1 in human HEK293T cells using Luciferin-BE as substrate incubated for 30 mins in presence of NADPH by luminescence based assay.

Molecules are shown by their SMILES. pIC50: −log10 of the molar value.

As to `CCc1ccc(N/C=N/O)cc1`, the inhibition at 1 µM in test [1] came out at 33.6%. Also, the inhibition at 10 µM in test [2] was determined as 72.8%.

With `CCCCc1ccc(N/C=N/O)cc1`, the inhibition at 1 µM in test [1] amounted to 54.2%. Moreover, the inhibition at 10 µM in test [2] was found to be 84.3%.

Take `CCOC(=O)Cc1ccc(N/C=N/O)cc1`: the inhibition at 1 µM in test [1] stood at 80.4%. Further, in test [3], the pIC50 was 7.05. In addition, the inhibition at 10 µM in test [2] amounted to 89.1%.

In general, inhibition refers to the share of the control response that was lost under treatment. As a reminder, the pIC50 is the negative decadic logarithm of the IC50, by convention in mol/L.
